Results from USH810H, “Biologically active amides” (priority 1976, dated 1990).

System: isolated mouse vas deferens
Assay type: cell-based
Protocol: The compounds were examined for their ability to inhibit neurally evoked contractions of the isolated mouse vas deferens preparation (method of Hughes et al, Brain Research, 88 (1975) 296, using pulses at 0.1 Hz).
The heights of the five contractions that immediately preceded the addition of the first "dose" of test compound were measured and their mean calculated. The resultant mean contraction associated with a particular bath concentration of test compound was calculated from the heights of the 6th, 7th, 8th, 9th and 10th contractions after the addition of the appropriate "dose" of test compound, i.e. the five contractions that immediately preceded the subsequent "dose" or washout.
Generally at least two cumulative dose response curves were constructed and a mean D50 calculated.

| Structure (SMILES) | Reversal of the inhibition of the contractions by naloxone | Relative Potency (Morphine) (RP=antilog[logD50(MORPHINE) - logD50(TEST COMPOUND)], morphine = 1.0) |
| --- | --- | --- |
| CN1CC[C@]23c4c5ccc(O)c4O[C@H]2[C@@H](O)C=C[C@H]3[C@H]1C5 [Morphine] | Reversal of the inhibition of the contractions was effected |  |
| COC(=O)[C@H](CCSC)NC(=O)[C@H](Cc1ccccc1)NC(=O)CNC(=O)[C@@H](C)NC(=O)[C@@H](N)Cc1ccc(O)cc1 [5(b), H.Tyr. --D-Ala.Gly.Phe.Met.OMe] |  | 94 |
